# Results: patent publication US10897891B2, “Compositions and methods for prolonged cell storage” (Board of Regents, The University of Texas System, priority 2015, dated 2021)
# Entries after “also recorded” stand apart in the source; their conditions may differ.
# How the values were obtained:
# Format in all cases: cell-based, human
# platelets [1] = assay: Hydrogen peroxide induced platelet aggregation (platelet 'aging', Experiment B); conditions: 2% PEG-400 in PBS, 1 hr room temperature
# Description: Platelet aggregation using epinephrine. Ten ml of 24 hr old platelet residual was derived from one platelet unit and split into two 5 ml aliquots in 50 ml tubes. One sample received 10% phosphate buffered saline (PBS) and one 10% PBS containing PEG400 such that the final PEG concentration was 2%. These samples were placed on a flat-bed rotator with a 1 inch stroke, at 70 cycles per min, at 5° C. for 7 days. 100 ul of these platelet suspensions were added to wells of a 96 well U bottom plate. Epinephrine 0.1 mg/ml (Pharmaceutical NDC 0409-4921-34-44-048-DK) was diluted with PBS and 100 ul was added to test wells to give a finial concentration of 10 mcg/ml. The plate was rotated overnight to allow aggregation. The extent of aggregation was read using an ELISA plate reader (Molecular Devises, Vmax) at 690 nm wavelength. Platelets, with and without PEG, were also aggregated by the addition of 10% H2O2. Hydrogen peroxide is not an agonist for the platelet receptor; however exposure to hydrogen peroxide mimics the platelet storage lesion though membrane ageing. In this study, the inventors tested 2 day old residual platelets form one donor unit by splitting the material in to a 24 well cluster plate. […] Table 3 presents additional cryoprotective agents scored for the effect on microscopic degranulation (20× high contrast lighting as above). […]
# platelets [2] = assay: Epinephrine induced platelet aggregation following cold storage (OD 690 nm, Experiment C); conditions: 2% PEG-400, 5° C. for 7 days
# Description: Platelet aggregation using epinephrine. Ten ml of 24 hr old platelet residual was derived from one platelet unit and split into two 5 ml aliquots in 50 ml tubes. One sample received 10% phosphate buffered saline (PBS) and one 10% PBS containing PEG400 such that the final PEG concentration was 2%. These samples were placed on a flat-bed rotator with a 1 inch stroke, at 70 cycles per min, at 5° C. for 7 days. 100 ul of these platelet suspensions were added to wells of a 96 well U bottom plate. Epinephrine 0.1 mg/ml (Pharmaceutical NDC 0409-4921-34-44-048-DK) was diluted with PBS and 100 ul was added to test wells to give a finial concentration of 10 mcg/ml. The plate was rotated overnight to allow aggregation. The extent of aggregation was read using an ELISA plate reader (Molecular Devises, Vmax) at 690 nm wavelength. Platelets, with and without PEG, were also aggregated by the addition of 10% H2O2. […] Table 3 presents additional cryoprotective agents scored for the effect on microscopic degranulation (20× high contrast lighting as above).
# Fresh donor platelets were supplemented with PBS or PBS 2% PEG-400 as described in the methods, and incubated at 5° C. for 7 days. These control and test samples were then loaded side by side on a 96 well plate (ensuring that test and control reading would be made simultaneously). […]
# platelets [3] = assay: Cholesterol membrane capping with the fluorescent cholesterol probe filipin (Experiment F); conditions: 5° C. overnight
# Description: (Note 1: Stock solutions were prepared in DMSO that was rigorously dried with an equal volume of A-3 molecular sieve that had been regenerated at 300° C. overnight. The resultant filipin stock 25 mg/ml DMSO solution was prepared in a nitrogen atmosphere and frozen at −70° C. to limit water induced hydrolysis.)
# Approximately 3 ml of residual pooled platelets were obtained after 72 hr at standard storage conditions. 100 ul of platelets were mixed with 100 ul of fresh filipin (300 ug/ml in PBS+10%, DMSO) in each of 12 wells of a 24 well cluster plate and incubated at room temperature for 35 min. (DMSO was included to assist with membrane loading of the highly insoluble filipin molecule.) All wells were then diluted by adding 2.5 ml of PBS and incubated another 15 min to dilute unbound filipin and allow removal of DMSO by dilution. The plate was next centrifuged at 2500 g for 20 min in a pre-warmed centrifuge at 22° C. All wells were gently aspirated and the PBS was replaced with 3 ml of control or test platelets as follows:
# All wells were next incubated 20 min at room temperature to allow DMSO to equilibrate. (Note: the final DMSO concentration in the Control wells or the PEG-400 only wells would be 6 parts in 10,000 or 0.06%.) Next the plate was held at 5° C. overnight and in the morning centrifuged in a 5° C. equilibrated centrifuge at 2,500 g for 20 min. Cold 4% Formalin/PBS was carefully added and the plate returned to 5° C. for overnight incubation. At 18 hr the plate was allowed to fix again at room temperature in the dark for 4 hours. Subsequently the formalin was aspirated and the plate washed with 4 changes of 2 ml of PBS. Finally, excess fluid was removed and the wells were photographed with an inverted fluorescent microscope. Note 2: Filipin is rapidly photo-bleached with the UV, thus the light intensity was lowered with a barrier filter of ˜20% was used. This filter setting was used consistently for all photographs. All photographs were taken under the same camera conditions. No post photographic image alterations were made. […]
substance,measurement,setting,value
Polyethylene glycol [PEG-400],platelet aggregation after 10% hydrogen peroxide vs PBS control,platelets [1],less aggregation of the platelets
same,"initial aggregation in the stored state (baseline OD 690 nm, no epinephrine)",platelets [2],less initial aggregation in the stored state
same,aggregation response to epinephrine challenge (OD 690 nm),platelets [2]; 0 vs 10 μg epinephrine,significant aggregation response to epinephrine
same,filipin clustering / cholesterol capping vs PBS control,platelets [3]; 2% PEG-400 in PBS,less filipin clustering; also recorded: less cholesterol capping
same,filipin clustering / cholesterol capping vs PBS control,platelets [3]; 4% PEG-400 in PBS,less cholesterol capping
same,filipin clustering / cholesterol capping vs PBS control,"platelets [3]; 4% PEG-400 in PBS, listed as PEG",less filipin clustering
